Where two headings read alike, the source gives them in different places.
Experiment: Plasma concentrations (PK), Example 1
Type: in vivo, human
Details: for level at 1344 h: Week 8; for level at 168 h: Week 1, Trough; for level at 672 h: Week 4
Description: For QD dosing, peak concentration was defined as any PK sample taken between 0.25 to <6 hours after the last morning dose and trough concentration was at least 20 hours after the last morning dose. For BID dosing, peak concentration was defined as any PK sample taken between 0.25 to <4 hours after the last dose and trough concentration was at least 8 hours after the last dose.

[1] = human, plasma, oral, 50 mg, 50 mg QD, Peak, read-out: Plasma concentration, Geometric Mean
[2] = human, plasma, oral, 50 mg, 50 mg QD, Peak, read-out: Plasma concentration, Mean
[3] = human, plasma, oral, 50 mg, 50 mg QD, Peak, read-out: Plasma concentration, Median
[4] = human, plasma, oral, 100 mg, 100 mg BID, Intermediate, read-out: Plasma concentration, Geometric Mean
[5] = human, plasma, oral, 100 mg, 100 mg BID, Peak, read-out: Plasma concentration, Geometric Mean
[6] = human, plasma, oral, 100 mg, 100 mg BID, Peak, read-out: Plasma concentration, Mean
[7] = human, plasma, oral, 100 mg, 100 mg BID, Peak, read-out: Plasma concentration, Median
[8] = human, plasma, oral, 100 mg, 100 mg QD, Intermediate, read-out: Plasma concentration, Geometric Mean
[9] = human, plasma, oral, 100 mg, 100 mg QD, Peak, read-out: Plasma concentration, Geometric Mean
[10] = human, plasma, oral, 100 mg, 100 mg QD, Peak, read-out: Plasma concentration, Mean
[11] = human, plasma, oral, 100 mg, 100 mg QD, Peak, read-out: Plasma concentration, Median

CC(=O)NCCCC[C@@H]1NC(=O)[C@H](Cc2c[nH]c3c(C)cccc23)NC(=O)[C@H]([C@@H](C)O)NC(=O)[C@H](CC(N)=O)NC(=O)[C@@H](NC(C)=O)C(C)(C)SSC(C)(C)[C@@H](C(=O)N[C@@H](Cc2ccc(OCCN)cc2)C(=O)N[C@@H](Cc2ccc3ccccc3c2)C(=O)NC2(C(=O)N[C@@H](CCC(=O)O)C(=O)N[C@@H](CC(N)=O)C(=O)N[C@@H](Cc3cccnc3)C(=O)N(C)CC(N)=O)CCOCC2)NC1=O [IL-23 receptor antagonist peptide, Ac-[Pen]*-N-T-[W(7-Me)]-[Lys(Ac)]-[Pen]*-Phe[4-(2-aminoethoxy)]-[2-Nal]-[THP]-E-N-[3-Pal]-Sarc-NH2 (*[Pen]-[Pen]* formdisulfidebond)]
level at 1344 h (human, plasma, oral, 25 mg, 25 mg QD, Trough, read-out: Plasma concentration, Median): 0.06 ng/mL | level at 2016 h (human, plasma, oral, 25 mg, 25 mg QD, Week 12, Trough, read-out: Plasma concentration, Mean): 0.052 ng/mL | level at 2016 h (human, plasma, oral, 25 mg, weight >90 kg, 25 mg BID, Week 12, Intermediate, read-out: Plasma concentration, Geometric Mean): 0.214 ng/mL | level at 2016 h (human, plasma, oral, 25 mg, weight >90 kg, 25 mg BID, Week 12, Peak, read-out: Plasma concentration, Geometric Mean): 0.32 ng/mL | level at 2016 h (human, plasma, oral, 25 mg, weight >90 kg, 25 mg BID, Week 12, Peak, read-out: Plasma concentration, Mean): 0.391 ng/mL | level at 2016 h (human, plasma, oral, 25 mg, weight >90 kg, 25 mg BID, Week 12, Peak, read-out: Plasma concentration, Median): 0.365 ng/mL | level at 2688 h (human, plasma, oral, 25 mg, weight >90 kg, 25 mg BID, Week 16, Intermediate, read-out: Plasma concentration, Mean): 0.181 ng/mL | level at 2688 h (human, plasma, oral, 25 mg, weight >90 kg, 25 mg BID, Week 16, Trough, read-out: Plasma concentration, Geometric Mean): 0.144 ng/mL | level at 2688 h (human, plasma, oral, 25 mg, weight >90 kg, 25 mg BID, Week 16, Trough, read-out: Plasma concentration, Mean): 0.152 ng/mL | level at 2688 h (human, plasma, oral, 25 mg, weight >90 kg, 25 mg BID, Week 16, Trough, read-out: Plasma concentration, Median): 0.138 ng/mL | level at 168 h (human, plasma, oral, 25 mg, weight >90 kg, 25 mg QD, read-out: Plasma concentration, Mean): 0.044 ng/mL | level at 2016 h (human, plasma, oral, 25 mg, weight >90 kg, 25 mg QD, Week 12, Peak, read-out: Plasma concentration, Geometric Mean): 0.236 ng/mL | level at 2016 h (human, plasma, oral, 25 mg, weight >90 kg, 25 mg QD, Week 12, Peak, read-out: Plasma concentration, Mean): 0.281 ng/mL | level at 2016 h (human, plasma, oral, 25 mg, weight >90 kg, 25 mg QD, Week 12, Peak, read-out: Plasma concentration, Median): 0.291 ng/mL | level at 2688 h (human, plasma, oral, 25 mg, weight >90 kg, 25 mg QD, Week 16, Intermediate, read-out: Plasma concentration, Mean): 0.165 ng/mL | level at 2688 h (human, plasma, oral, 25 mg, weight >90 kg, 25 mg QD, Week 16, Trough, read-out: Plasma concentration, Geometric Mean): 0.063 ng/mL | level at 2688 h (human, plasma, oral, 25 mg, weight >90 kg, 25 mg QD, Week 16, Trough, read-out: Plasma concentration, Mean): 0.066 ng/mL | level at 2688 h (human, plasma, oral, 25 mg, weight >90 kg, 25 mg QD, Week 16, Trough, read-out: Plasma concentration, Median): 0.047 ng/mL | level at 2016 h (human, plasma, oral, 25 mg, weight ≤90 kg, 25 mg QD, Week 12, Trough, read-out: Plasma concentration, Mean): 0.045 ng/mL | level at 672 h [1]: 0.481 ng/mL | level at 672 h [2]: 0.564 ng/mL | level at 672 h [3]: 0.539 ng/mL | level at 1344 h (human, plasma, oral, 50 mg, 50 mg QD, Intermediate, read-out: Plasma concentration, Geometric Mean): 0.441 ng/mL | level at 1344 h (human, plasma, oral, 50 mg, 50 mg QD, Intermediate, read-out: Plasma concentration, Mean): 0.441 ng/mL | level at 1344 h (human, plasma, oral, 50 mg, 50 mg QD, Intermediate, read-out: Plasma concentration, Median): 0.441 ng/mL | level at 1344 h [1]: 0.853 ng/mL | level at 1344 h [2]: 1.1 ng/mL | level at 1344 h [3]: 0.78 ng/mL | level at 1344 h (human, plasma, oral, 50 mg, 50 mg QD, Trough, read-out: Plasma concentration, Geometric Mean): 0.111 ng/mL | level at 1344 h (human, plasma, oral, 50 mg, 50 mg QD, Trough, read-out: Plasma concentration, Mean): 0.147 ng/mL | level at 1344 h (human, plasma, oral, 50 mg, 50 mg QD, Trough, read-out: Plasma concentration, Median): 0.112 ng/mL | level at 2016 h (human, plasma, oral, 50 mg, 50 mg QD, Week 12, Trough, read-out: Plasma concentration, Mean): 0.085 ng/mL | level at 168 h (human, plasma, oral, 50 mg, weight >90 kg, 50 mg QD, read-out: Plasma concentration, Mean): 0.073 ng/mL | level at 2016 h (human, plasma, oral, 50 mg, weight >90 kg, 50 mg QD, Week 12, Peak, read-out: Plasma concentration, Geometric Mean): 0.551 ng/mL | level at 2016 h (human, plasma, oral, 50 mg, weight >90 kg, 50 mg QD, Week 12, Peak, read-out: Plasma concentration, Mean): 0.786 ng/mL | level at 2016 h (human, plasma, oral, 50 mg, weight >90 kg, 50 mg QD, Week 12, Peak, read-out: Plasma concentration, Median): 0.388 ng/mL | level at 2688 h (human, plasma, oral, 50 mg, weight >90 kg, 50 mg QD, Week 16, Intermediate, read-out: Plasma concentration, Mean): 0.321 ng/mL | level at 2688 h (human, plasma, oral, 50 mg, weight >90 kg, 50 mg QD, Week 16, Trough, read-out: Plasma concentration, Geometric Mean): 0.105 ng/mL | level at 2688 h (human, plasma, oral, 50 mg, weight >90 kg, 50 mg QD, Week 16, Trough, read-out: Plasma concentration, Mean): 0.096 ng/mL | level at 2688 h (human, plasma, oral, 50 mg, weight >90 kg, 50 mg QD, Week 16, Trough, read-out: Plasma concentration, Median): 0.115 ng/mL | level at 2016 h (human, plasma, oral, 50 mg, weight ≤90 kg, 50 mg QD, Week 12, Trough, read-out: Plasma concentration, Mean): 0.083 ng/mL | level at 672 h [4]: 0.756 ng/mL | level at 672 h [5]: 1.7 ng/mL | level at 672 h [6]: 2.05 ng/mL | level at 672 h [7]: 1.84 ng/mL | level at 1344 h [4]: 0.675 ng/mL | level at 1344 h (human, plasma, oral, 100 mg, 100 mg BID, Intermediate, read-out: Plasma concentration, Mean): 1.04 ng/mL | level at 1344 h (human, plasma, oral, 100 mg, 100 mg BID, Intermediate, read-out: Plasma concentration, Median): 0.84 ng/mL | level at 1344 h [5]: 1.86 ng/mL | level at 1344 h [6]: 3.55 ng/mL | level at 1344 h [7]: 1.44 ng/mL | level at 1344 h (human, plasma, oral, 100 mg, 100 mg BID, Trough, read-out: Plasma concentration, Geometric Mean): 0.664 ng/mL | level at 1344 h (human, plasma, oral, 100 mg, 100 mg BID, Trough, read-out: Plasma concentration, Mean): 0.961 ng/mL | level at 1344 h (human, plasma, oral, 100 mg, 100 mg BID, Trough, read-out: Plasma concentration, Median): 0.744 ng/mL | level at 2016 h (human, plasma, oral, 100 mg, 100 mg BID, Week 12, Trough, read-out: Plasma concentration, Mean): 1.1 ng/mL | level at 672 h [8]: 0.683 ng/mL | level at 672 h [9]: 0.968 ng/mL | level at 672 h [10]: 1.31 ng/mL | level at 672 h [11]: 1.34 ng/mL | level at 1344 h [8]: 0.235 ng/mL | level at 1344 h (human, plasma, oral, 100 mg, 100 mg QD, Intermediate, read-out: Plasma concentration, Mean): 0.235 ng/mL | level at 1344 h (human, plasma, oral, 100 mg, 100 mg QD, Intermediate, read-out: Plasma concentration, Median): 0.235 ng/mL | level at 1344 h [9]: 0.892 ng/mL | level at 1344 h [10]: 1.15 ng/mL | level at 1344 h [11]: 0.873 ng/mL | level at 1344 h (human, plasma, oral, 100 mg, 100 mg QD, Trough, read-out: Plasma concentration, Geometric Mean): 0.175 ng/mL | level at 1344 h (human, plasma, oral, 100 mg, 100 mg QD, Trough, read-out: Plasma concentration, Mean): 0.229 ng/mL | level at 1344 h (human, plasma, oral, 100 mg, 100 mg QD, Trough, read-out: Plasma concentration, Median): 0.149 ng/mL | level at 2016 h (human, plasma, oral, 100 mg, 100 mg QD, Week 12, Trough, read-out: Plasma concentration, Mean): 0.355 ng/mL | level at 2016 h (human, plasma, oral, 100 mg, weight >90 kg, 100 mg BID, Week 12, Intermediate, read-out: Plasma concentration, Geometric Mean): 0.601 ng/mL | level at 2016 h (human, plasma, oral, 100 mg, weight >90 kg, 100 mg BID, Week 12, Peak, read-out: Plasma concentration, Geometric Mean): 2.13 ng/mL | level at 2016 h (human, plasma, oral, 100 mg, weight >90 kg, 100 mg BID, Week 12, Peak, read-out: Plasma concentration, Mean): 6.41 ng/mL | level at 2016 h (human, plasma, oral, 100 mg, weight >90 kg, 100 mg BID, Week 12, Peak, read-out: Plasma concentration, Median): 1.29 ng/mL | level at 2688 h (human, plasma, oral, 100 mg, weight >90 kg, 100 mg BID, Week 16, Intermediate, read-out: Plasma concentration, Mean): 0.724 ng/mL | level at 2688 h (human, plasma, oral, 100 mg, weight >90 kg, 100 mg BID, Week 16, Trough, read-out: Plasma concentration, Geometric Mean): 0.522 ng/mL | level at 2688 h (human, plasma, oral, 100 mg, weight >90 kg, 100 mg BID, Week 16, Trough, read-out: Plasma concentration, Mean): 0.755 ng/mL | level at 2688 h (human, plasma, oral, 100 mg, weight >90 kg, 100 mg BID, Week 16, Trough, read-out: Plasma concentration, Median): 0.428 ng/mL | level at 2016 h (human, plasma, oral, 100 mg, weight >90 kg, 100 mg QD, Week 12, Intermediate, read-out: Plasma concentration, Geometric Mean): 0.75 ng/mL | level at 2016 h (human, plasma, oral, 100 mg, weight >90 kg, 100 mg QD, Week 12, Peak, read-out: Plasma concentration, Geometric Mean): 1.04 ng/mL | level at 2016 h (human, plasma, oral, 100 mg, weight >90 kg, 100 mg QD, Week 12, Peak, read-out: Plasma concentration, Mean): 1.04 ng/mL | level at 2016 h (human, plasma, oral, 100 mg, weight >90 kg, 100 mg QD, Week 12, Peak, read-out: Plasma concentration, Median): 1.09 ng/mL | level at 2688 h (human, plasma, oral, 100 mg, weight >90 kg, 100 mg QD, Week 16, Intermediate, read-out: Plasma concentration, Mean): 0.378 ng/mL | level at 2688 h (human, plasma, oral, 100 mg, weight >90 kg, 100 mg QD, Week 16, Trough, read-out: Plasma concentration, Geometric Mean): 0.102 ng/mL | level at 2688 h (human, plasma, oral, 100 mg, weight >90 kg, 100 mg QD, Week 16, Trough, read-out: Plasma concentration, Mean): 0.11 ng/mL | level at 2688 h (human, plasma, oral, 100 mg, weight >90 kg, 100 mg QD, Week 16, Trough, read-out: Plasma concentration, Median): 0.129 ng/mL | half-life (human, plasma, oral, read-out: Terminal elimination half-life): 9 to 12 h | Attainment of steady state conditions (oral daily dosing): ≤ 1 Week
